± gives the expanded uncertainty stated by the source.
Assay: xn = mol fraction of the nth substance listed
Conditions: 100 kPa, Liquid; for viscosity: Capillary tube (Ostwald / Ubbelohde) method

Structure (SMILES): COC(C)(C)C [2-methoxy-2-methylpropane] + CCCCCCCC
- viscosity (273.15 K, x1 = 0.1019): 0.685 ± 0.009 mPa·s
- viscosity (273.15 K, x1 = 0.2189): 0.651 ± 0.009 mPa·s
- viscosity (273.15 K, x1 = 0.3026): 0.622 ± 0.009 mPa·s
- viscosity (273.15 K, x1 = 0.4029): 0.597 ± 0.009 mPa·s
- viscosity (273.15 K, x1 = 0.4995): 0.57 ± 0.009 mPa·s
- viscosity (273.15 K, x1 = 0.6099): 0.549 ± 0.009 mPa·s
- viscosity (273.15 K, x1 = 0.7072): 0.525 ± 0.009 mPa·s
- viscosity (273.15 K, x1 = 0.7981): 0.494 ± 0.009 mPa·s
- viscosity (273.15 K, x1 = 0.8941): 0.472 ± 0.009 mPa·s
- mass density (273.15 K, x1 = 0.1059): 721.15 ± 0.6 kg/m3
- mass density (273.15 K, x1 = 0.2123): 724.203 ± 0.59 kg/m3
- mass density (273.15 K, x1 = 0.3019): 727.065 ± 0.58 kg/m3
- mass density (273.15 K, x1 = 0.4099): 730.835 ± 0.58 kg/m3
- mass density (273.15 K, x1 = 0.5053): 734.583 ± 0.57 kg/m3
- mass density (273.15 K, x1 = 0.6005): 738.614 ± 0.57 kg/m3
- mass density (273.15 K, x1 = 0.6934): 742.992 ± 0.57 kg/m3
- mass density (273.15 K, x1 = 0.7967): 748.318 ± 0.57 kg/m3
- mass density (273.15 K, x1 = 0.8975): 754.329 ± 0.56 kg/m3
- viscosity (278.15 K, x1 = 0.1019): 0.638 ± 0.009 mPa·s
- viscosity (278.15 K, x1 = 0.2189): 0.607 ± 0.009 mPa·s
- viscosity (278.15 K, x1 = 0.3026): 0.583 ± 0.009 mPa·s
- viscosity (278.15 K, x1 = 0.4029): 0.559 ± 0.009 mPa·s
- viscosity (278.15 K, x1 = 0.4995): 0.534 ± 0.009 mPa·s
- viscosity (278.15 K, x1 = 0.6099): 0.514 ± 0.009 mPa·s
- viscosity (278.15 K, x1 = 0.7072): 0.492 ± 0.009 mPa·s
- viscosity (278.15 K, x1 = 0.7981): 0.462 ± 0.009 mPa·s
- viscosity (278.15 K, x1 = 0.8941): 0.442 ± 0.009 mPa·s
- mass density (278.15 K, x1 = 0.1059): 717.106 ± 0.6 kg/m3
- mass density (278.15 K, x1 = 0.2123): 720.082 ± 0.59 kg/m3
- mass density (278.15 K, x1 = 0.3019): 722.866 ± 0.59 kg/m3
- mass density (278.15 K, x1 = 0.4099): 726.533 ± 0.58 kg/m3
- mass density (278.15 K, x1 = 0.5053): 730.183 ± 0.58 kg/m3
- mass density (278.15 K, x1 = 0.6005): 734.106 ± 0.57 kg/m3
- mass density (278.15 K, x1 = 0.6934): 738.371 ± 0.57 kg/m3
- mass density (278.15 K, x1 = 0.7967): 743.56 ± 0.57 kg/m3
- mass density (278.15 K, x1 = 0.8975): 749.42 ± 0.57 kg/m3
- viscosity (283.15 K, x1 = 0.1019): 0.597 ± 0.009 mPa·s
- viscosity (283.15 K, x1 = 0.2189): 0.568 ± 0.009 mPa·s
- viscosity (283.15 K, x1 = 0.3026): 0.545 ± 0.009 mPa·s
- viscosity (283.15 K, x1 = 0.4029): 0.523 ± 0.009 mPa·s
- viscosity (283.15 K, x1 = 0.4995): 0.501 ± 0.009 mPa·s
- viscosity (283.15 K, x1 = 0.6099): 0.483 ± 0.009 mPa·s
- viscosity (283.15 K, x1 = 0.7072): 0.462 ± 0.009 mPa·s
- viscosity (283.15 K, x1 = 0.7981): 0.435 ± 0.009 mPa·s
- viscosity (283.15 K, x1 = 0.8941): 0.417 ± 0.009 mPa·s
- mass density (283.15 K, x1 = 0.1059): 713.046 ± 0.61 kg/m3
- mass density (283.15 K, x1 = 0.2123): 715.938 ± 0.6 kg/m3
- mass density (283.15 K, x1 = 0.3019): 718.644 ± 0.59 kg/m3
- mass density (283.15 K, x1 = 0.4099): 722.208 ± 0.59 kg/m3
- mass density (283.15 K, x1 = 0.5053): 725.756 ± 0.58 kg/m3
- mass density (283.15 K, x1 = 0.6005): 729.573 ± 0.58 kg/m3
- mass density (283.15 K, x1 = 0.6934): 733.719 ± 0.58 kg/m3
- mass density (283.15 K, x1 = 0.7967): 738.766 ± 0.57 kg/m3
- mass density (283.15 K, x1 = 0.8975): 744.471 ± 0.57 kg/m3
- viscosity (288.15 K, x1 = 0.1019): 0.559 ± 0.009 mPa·s
- viscosity (288.15 K, x1 = 0.2189): 0.533 ± 0.009 mPa·s
- viscosity (288.15 K, x1 = 0.3026): 0.514 ± 0.009 mPa·s
- viscosity (288.15 K, x1 = 0.4029): 0.492 ± 0.009 mPa·s
- viscosity (288.15 K, x1 = 0.4995): 0.471 ± 0.009 mPa·s
- viscosity (288.15 K, x1 = 0.6099): 0.454 ± 0.009 mPa·s
- viscosity (288.15 K, x1 = 0.7072): 0.435 ± 0.009 mPa·s
- viscosity (288.15 K, x1 = 0.7981): 0.41 ± 0.009 mPa·s
- viscosity (288.15 K, x1 = 0.8941): 0.393 ± 0.008 mPa·s
- mass density (288.15 K, x1 = 0.1059): 708.972 ± 0.61 kg/m3
- mass density (288.15 K, x1 = 0.2123): 711.779 ± 0.6 kg/m3
- mass density (288.15 K, x1 = 0.3019): 714.403 ± 0.6 kg/m3
- mass density (288.15 K, x1 = 0.4099): 717.859 ± 0.59 kg/m3
- mass density (288.15 K, x1 = 0.5053): 721.306 ± 0.59 kg/m3
- mass density (288.15 K, x1 = 0.6005): 725.009 ± 0.58 kg/m3
- mass density (288.15 K, x1 = 0.6934): 729.044 ± 0.58 kg/m3
- mass density (288.15 K, x1 = 0.7967): 733.942 ± 0.58 kg/m3
- mass density (288.15 K, x1 = 0.8975): 739.489 ± 0.58 kg/m3
- viscosity (293.15 K, x1 = 0.1019): 0.525 ± 0.009 mPa·s
- viscosity (293.15 K, x1 = 0.2189): 0.501 ± 0.009 mPa·s
- viscosity (293.15 K, x1 = 0.3026): 0.483 ± 0.009 mPa·s
- viscosity (293.15 K, x1 = 0.4029): 0.464 ± 0.009 mPa·s
- viscosity (293.15 K, x1 = 0.4995): 0.445 ± 0.009 mPa·s
- viscosity (293.15 K, x1 = 0.6099): 0.428 ± 0.009 mPa·s
- viscosity (293.15 K, x1 = 0.7072): 0.411 ± 0.009 mPa·s
- viscosity (293.15 K, x1 = 0.7981): 0.388 ± 0.008 mPa·s
- viscosity (293.15 K, x1 = 0.8941): 0.372 ± 0.008 mPa·s
- mass density (293.15 K, x1 = 0.1059): 704.884 ± 0.62 kg/m3
- mass density (293.15 K, x1 = 0.2123): 707.601 ± 0.61 kg/m3
- mass density (293.15 K, x1 = 0.3019): 710.139 ± 0.61 kg/m3
- mass density (293.15 K, x1 = 0.4099): 713.488 ± 0.6 kg/m3
- mass density (293.15 K, x1 = 0.5053): 716.833 ± 0.59 kg/m3
- mass density (293.15 K, x1 = 0.6005): 720.419 ± 0.59 kg/m3
- mass density (293.15 K, x1 = 0.6934): 724.332 ± 0.59 kg/m3
- mass density (293.15 K, x1 = 0.7967): 729.066 ± 0.58 kg/m3
- mass density (293.15 K, x1 = 0.8975): 734.467 ± 0.58 kg/m3
- viscosity (298.15 K, x1 = 0.1019): 0.495 ± 0.009 mPa·s
- viscosity (298.15 K, x1 = 0.2189): 0.473 ± 0.009 mPa·s
- viscosity (298.15 K, x1 = 0.3026): 0.455 ± 0.009 mPa·s
- viscosity (298.15 K, x1 = 0.4029): 0.439 ± 0.009 mPa·s
- viscosity (298.15 K, x1 = 0.4995): 0.42 ± 0.009 mPa·s
- viscosity (298.15 K, x1 = 0.6099): 0.405 ± 0.009 mPa·s
- viscosity (298.15 K, x1 = 0.7072): 0.388 ± 0.008 mPa·s
- viscosity (298.15 K, x1 = 0.7981): 0.367 ± 0.008 mPa·s
- mass density (298.15 K, x1 = 0.1059): 700.768 ± 0.62 kg/m3
- mass density (298.15 K, x1 = 0.2123): 703.393 ± 0.62 kg/m3
- mass density (298.15 K, x1 = 0.3019): 705.856 ± 0.61 kg/m3
- mass density (298.15 K, x1 = 0.4099): 709.092 ± 0.6 kg/m3
- mass density (298.15 K, x1 = 0.5053): 712.324 ± 0.6 kg/m3
- mass density (298.15 K, x1 = 0.6005): 715.799 ± 0.59 kg/m3
- mass density (298.15 K, x1 = 0.6934): 719.586 ± 0.59 kg/m3
- mass density (298.15 K, x1 = 0.7967): 724.172 ± 0.59 kg/m3

Reference: the NIST ThermoML archive (doi:10.1021/je600554h)
